One data set relates to BMDC. The data set can be described thus: Anti-inflammatory activity against R848-stimulated mouse BMDC cells assessed as upregulation of IL-10 production at 5 uM treated for 24 hrs followed by R848 stimulation for 12 hrs by ELISA method (reference value: 100 %). Format: functional. The note with it: time 36 hrs. On the technique in general: ELISA stands for enzyme-linked immunosorbent assay.

Data set [1] addresses CDK8/Cyclin C (Homo sapiens) (UniProt P49336+P24863). The data set can be described thus: Inhibition of recombinant full length His tagged human CDK8/Cyclin C expressed in Baculovirus at 200 nM incubated for 60 mins in presence of ATP by ADP-Glo kinase assay.
In the next data set the target is CDK8/Cyclin C (Homo sapiens, UniProt P49336). The data set can be described thus: Inhibition of recombinant full length His tagged human CDK8/Cyclin C expressed in Baculovirus incubated for 60 mins in presence of ATP by ADP-Glo kinase assay.
Sequence of CDK8/Cyclin C (P49336 whole entry): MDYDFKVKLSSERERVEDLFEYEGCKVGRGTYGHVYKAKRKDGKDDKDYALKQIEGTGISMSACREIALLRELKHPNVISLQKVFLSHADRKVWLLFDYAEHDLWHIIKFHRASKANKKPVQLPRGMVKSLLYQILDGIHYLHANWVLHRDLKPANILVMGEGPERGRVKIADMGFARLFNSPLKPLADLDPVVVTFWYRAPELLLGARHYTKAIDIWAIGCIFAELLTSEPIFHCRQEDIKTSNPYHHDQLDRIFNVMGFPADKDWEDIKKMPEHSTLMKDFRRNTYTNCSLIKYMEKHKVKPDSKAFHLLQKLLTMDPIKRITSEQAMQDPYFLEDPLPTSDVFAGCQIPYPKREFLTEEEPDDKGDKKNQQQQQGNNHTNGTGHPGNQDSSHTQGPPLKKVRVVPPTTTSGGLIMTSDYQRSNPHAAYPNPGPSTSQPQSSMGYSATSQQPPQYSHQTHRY
Sequence of CDK8/Cyclin C (P24863 whole entry, further chain): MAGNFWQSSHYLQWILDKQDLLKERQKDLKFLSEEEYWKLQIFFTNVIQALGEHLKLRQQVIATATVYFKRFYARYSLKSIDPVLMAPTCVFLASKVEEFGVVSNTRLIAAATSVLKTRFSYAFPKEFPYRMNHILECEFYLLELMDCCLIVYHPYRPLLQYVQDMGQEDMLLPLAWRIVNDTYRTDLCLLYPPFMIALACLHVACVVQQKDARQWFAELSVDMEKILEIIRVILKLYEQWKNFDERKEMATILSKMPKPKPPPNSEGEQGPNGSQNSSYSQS
Data set [2] can be described thus: Transcriptional activity of AP-1 in R848-stimulated mouse BMDC cells transfected with pAP1-luc assessed as ratio of AP-1 activity at 5 uM treated for 24 hrs followed by R848 stimulation for 4 hrs by luminescence based microplate reader analysis relative to control. Format: functional. Conditions: time 28 hrs.
A short description of data set [3]: Stability of compound in human liver microsome assessed as intrinsic clearance by HPLC analysis. Format: ADME. The note with it: liver microsomes, read-out: CLH.

By inhibition is commonly meant how much of the control response was suppressed. What is called IC50 is the midpoint of a concentration-inhibition curve. Take `Nc1ccccc1NC(=O)c1cncc(-c2ccc(C(=O)N3CCNCC3)cc2)c1`: in the data set on BMDC, the Activity is on record as 24%. The inhibition in data set [1] was 27%. Besides, the IC50 at CDK8/Cyclin C came to 947 nM. The Ratio in data set [2] came to 1.63.
In the case of `O=C(Nc1ccccc1)c1cccc(-c2ccc(C(=O)N3CCNCC3)cc2)c1`, the inhibition in data set [1] amounted to 67%. The half-maximal inhibitory concentration (IC50) at CDK8/Cyclin C amounted to 162 nM. For the same compound, in data set [2], the Ratio came out at 1.7.
As for `CC1CCc2nc(N)c(C#N)c(-c3cccnc3)c2C1` (configuration not stated), the Activity in the data set with BMDC was 66%. Further, the half-maximal inhibitory concentration (IC50) at CDK8/Cyclin C is 211 nM. Moreover, the Ratio in data set [2] came out at 2.5.
Consider `O=C(Nc1ccccc1)c1cc(O)cc(-c2ccc(C(=O)N3CCNCC3)cc2)c1`, for which, in the data set with BMDC, the Activity is 82%. For the same compound, the inhibition in data set [1] was determined as 30%. On CDK8/Cyclin C, the IC50 turned out to be 530 nM. Moreover, the microsomal CLint in data set [3] worked out at 9.5 µL/min/mg. Besides, in data set [2], the Ratio turned out to be 1.3.
As for `COc1ccc(NC(=O)c2cncc(-c3ccc(C(=O)N4CCNCC4)cc3)c2)cc1`, in the data set on BMDC, the Activity is 74%. Besides, the inhibition in data set [1] was 77%. Moreover, the IC50 on CDK8/Cyclin C was 81 nM. In addition, the Ratio in data set [2] is on record as 1.7.
As for `COc1c(O)cc(O)c2c(=O)cc(-c3ccccc3)oc12` [WOGONIN], the Activity in the data set on BMDC was determined as 65%. In addition, the IC50 at CDK8/Cyclin C came to 5900 nM. Moreover, the microsomal CLint in data set [3] was found to be 11.3 µL/min/mg. Further, the Ratio in data set [2] came out at 1.4.
For `COc1cccc(NC(=O)c2cncc(-c3ccc(C(=O)N4CCNCC4)cc3)c2)c1`, the Activity with BMDC turned out to be 65%. The inhibition in data set [1] turned out to be 80%. The IC50 on CDK8/Cyclin C came to 65 nM. The microsomal CLint in data set [3] is 7 µL/min/mg. Also, the Ratio in data set [2] is on record as 2.
In the case of `O=C(Nc1ccccc1)c1cc(-c2ccc(C(=O)N3CCNCC3)cc2)ccc1O`, the Activity with BMDC is recorded as 40%. Moreover, in data set [1], the inhibition is 54%. In addition, the IC50 at CDK8/Cyclin C was 210 nM. Moreover, the Ratio in data set [2] was 1.2.
As to `Nc1ccc(-c2cc(O)c3c(=O)cc(-c4ccccc4)oc3c2)cc1`, the Activity with BMDC came out at 21%. Also, the inhibition in data set [1] stood at 64%. In addition, the IC50 at CDK8/Cyclin C is 112 nM. The Ratio in data set [2] turned out to be 2.6.
`O=C(c1ccc(-c2cc(O)c3c(=O)cc(-c4ccccc4)oc3c2)cc1)N1CCNCC1`: in the data set on BMDC, the Activity was determined as 43%. Moreover, the inhibition in data set [1] was found to be 75%. For the same compound, at CDK8/Cyclin C, the IC50 came to 72 nM. For the same compound, the microsomal CLint in data set [3] was determined as 12.9 µL/min/mg. In addition, the Ratio in data set [2] was 2.4.
Regarding `Nc1ncc(C(=O)Nc2ccccc2)cc1-c1ccc(C(=O)N2CCNCC2)cc1`, in the data set with BMDC, the Activity is 56%. Besides, the inhibition in data set [1] worked out at 44%. At CDK8/Cyclin C, the IC50 turned out to be 260 nM. Moreover, the Ratio in data set [2] is reported as 1.7.
Turning to `Cc1ccccc1NC(=O)c1cncc(-c2ccc(C(=O)N3CCNCC3)cc2)c1`, the Activity in the data set with BMDC is 70%. The inhibition in data set [1] is 81%. In addition, the IC50 on CDK8/Cyclin C turned out to be 70 nM. Moreover, the microsomal CLint in data set [3] came to 13 µL/min/mg. Further, the Ratio in data set [2] was determined as 1.5.
`CN1CCN(c2ccc(-c3cc(O)c4c(=O)cc(-c5ccccc5)oc4c3)cc2)CC1`: the Activity in the data set on BMDC stood at 53%. Besides, in data set [1], the inhibition worked out at 42%. In addition, in data set [2], the Ratio is recorded as 1.4.
As for `O=c1cc(-c2ccccc2)oc2cc(-c3ccc(C(F)(F)F)cc3)cc(O)c12`, in data set [1], the inhibition was determined as 28%. Besides, the IC50 on CDK8/Cyclin C was 2110 nM. In addition, the Ratio in data set [2] is 1.4.
On to `Cc1cccc(NC(=O)c2cncc(-c3ccc(C(=O)N4CCNCC4)cc3)c2)c1`, for which the Activity with BMDC is 62%. Further, the inhibition in data set [1] turned out to be 76%. Moreover, the IC50 at CDK8/Cyclin C was 75 nM. Also, the Ratio in data set [2] was found to be 1.6.
Turning to `O=c1cc(-c2ccccc2)oc2cc(-c3ccc(N4CCNCC4)cc3)cc(O)c12`, the Activity in the data set on BMDC came out at 80%. Also, the inhibition in data set [1] turned out to be 53%. On CDK8/Cyclin C, the IC50 amounted to 190 nM. The microsomal CLint in data set [3] worked out at 13.7 µL/min/mg. The Ratio in data set [2] stood at 1.5.
For `O=C(Nc1ccccc1)c1ccnc(-c2ccc(C(=O)N3CCNCC3)cc2)c1`, the Activity in the data set on BMDC is 29%. For the same compound, the inhibition in data set [1] was 65%. The IC50 at CDK8/Cyclin C is 80 nM. Also, the microsomal CLint in data set [3] amounted to 10.9 µL/min/mg. In data set [2], the Ratio is on record as 2.4.
With `O=c1cc(-c2ccccc2)oc2cc(-c3ccc(CN4CCNCC4)cc3)cc(O)c12`, the Activity in the data set on BMDC is recorded as 33%. Further, in data set [1], the inhibition was determined as 69%. In addition, the IC50 on CDK8/Cyclin C came out at 144 nM. In addition, in data set [3], the microsomal CLint was determined as 15.9 µL/min/mg. The Ratio in data set [2] came to 1.9.
In the case of `CCc1cccc(NC(=O)c2cncc(-c3ccc(C(=O)N4CCNCC4)cc3)c2)c1`, the Activity in the data set with BMDC is 34%. The inhibition in data set [1] amounted to 73%. Also, the 50% inhibitory concentration (IC50) on CDK8/Cyclin C is 104 nM. The Ratio in data set [2] turned out to be 1.7.
With `O=C(Nc1ccc(Cl)cc1)c1cncc(-c2ccc(C(=O)N3CCNCC3)cc2)c1`, the Activity in the data set with BMDC came out at 33%. Also, in data set [1], the inhibition stood at 20%. For the same compound, the concentration for half-maximal inhibition (IC50) at CDK8/Cyclin C amounted to 1470 nM. Besides, the Ratio in data set [2] turned out to be 1.55.
In the case of `CN(C)c1ccc(-c2cc(O)c3c(=O)cc(-c4ccccc4)oc3c2)cc1`, in data set [1], the inhibition amounted to 62%. On CDK8/Cyclin C, the IC50 was determined as 177 nM. In addition, in data set [2], the Ratio is reported as 1.4.
Turning to `CC(=O)Nc1ccc(NC(=O)c2cncc(-c3ccc(C(=O)N4CCNCC4)cc3)c2)cc1`, the Activity in the data set on BMDC turned out to be 37%. In data set [1], the inhibition turned out to be 35%. In addition, the IC50 on CDK8/Cyclin C is 1050 nM. Further, the Ratio in data set [2] was 1.1.
On to `CN1CCN(Cc2ccc(-c3cc(O)c4c(=O)cc(-c5ccccc5)oc4c3)cc2)CC1`, for which the Activity with BMDC is on record as 36%. For the same compound, the inhibition in data set [1] is 25%. In addition, the Ratio in data set [2] worked out at 1.1.
In the case of `O=C(Nc1ccccc1)c1cc(-c2ccc(C(=O)N3CCNCC3)cc2)ccn1`, the Activity in the data set with BMDC amounted to 72%. Further, in data set [1], the inhibition is 78%. Further, the IC50 at CDK8/Cyclin C is 87 nM. For the same compound, in data set [3], the microsomal CLint came to 10.4 µL/min/mg. Moreover, the Ratio in data set [2] was 2.3.
Turning to `O=c1cc(-c2ccccc2)oc2cc(-c3ccncc3)cc(O)c12`, the Activity in the data set on BMDC was 73%. The inhibition in data set [1] is 24%. In addition, in data set [2], the Ratio is reported as 1.2.
Consider `O=c1cc(-c2ccccc2)oc2cc(-c3ccccc3)cc(O)c12`, for which the inhibition in data set [1] was 46%. Further, at CDK8/Cyclin C, the IC50 amounted to 234 nM. In addition, in data set [3], the microsomal CLint was 10.9 µL/min/mg. The Ratio in data set [2] amounted to 1.5.
With `O=C(Nc1ccccc1)c1ccc(O)c(-c2ccc(C(=O)N3CCNCC3)cc2)c1`, the Activity in the data set on BMDC amounted to 26%. For the same compound, in data set [1], the inhibition came out at 57%. Moreover, on CDK8/Cyclin C, the IC50 was found to be 214 nM. The Ratio in data set [2] is listed as 1.2.
In the case of `Nc1ncc(-c2ccc(C(=O)N3CCNCC3)cc2)cc1C(=O)Nc1ccccc1`, in the data set with BMDC, the Activity turned out to be 61%. Moreover, the inhibition in data set [1] came out at 62%. The IC50 on CDK8/Cyclin C is 134 nM. In data set [2], the Ratio is 2.7.
Consider `O=C(Nc1ccccc1)c1cncc(-c2ccc(C(=O)N3CCNCC3)cc2)c1`, for which, in the data set on BMDC, the Activity amounted to 76%. Further, in data set [1], the inhibition came out at 79%. On CDK8/Cyclin C, the IC50 was determined as 80 nM. Further, the microsomal CLint in data set [3] is 7.3 µL/min/mg. Further, in data set [2], the Ratio worked out at 2.8.
Take `CCc1ccc(NC(=O)c2cncc(-c3ccc(C(=O)N4CCNCC4)cc3)c2)cc1`: the Activity in the data set on BMDC is reported as 40%. Moreover, the inhibition in data set [1] turned out to be 71%. For the same compound, at CDK8/Cyclin C, the IC50 was found to be 96 nM. In addition, in data set [2], the Ratio stood at 1.9.
In the same order, the values of `Cc1ccc(-c2cc(O)c3c(=O)cc(-c4ccccc4)oc3c2)cc1` are 83%, 62%, 155 nM and 2.6.
Turning to `CC(=O)Nc1cccc(NC(=O)c2cncc(-c3ccc(C(=O)N4CCNCC4)cc3)c2)c1`, the Activity in the data set with BMDC is 78%. Further, the inhibition in data set [1] amounted to 65%. The IC50 on CDK8/Cyclin C worked out at 134 nM.
`Nc1ccc(NC(=O)c2cncc(-c3ccc(C(=O)N4CCNCC4)cc3)c2)cc1`: in the data set on BMDC, the Activity worked out at 30%. Further, in data set [1], the inhibition is 34%. Further, the 50% inhibitory concentration (IC50) on CDK8/Cyclin C was 3650 nM. Also, in data set [2], the Ratio worked out at 1.72.
In the same order, the values of `O=C(Nc1cccc(C(F)(F)F)c1)c1cncc(-c2ccc(C(=O)N3CCNCC3)cc2)c1` are 42%, 24%, 1140 nM and 1.41.
